Data from PubChem BioAssay (NCI).
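Dose response: 5 concentrations. Exposure: 48 h. Format: 96-well plates. Endpoint: linear interpolation; highest concentration if not reached. TGI denotes the concentration required for complete inhibition of growth.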

Key:
Assay in all cases: DTP human tumour cell line panel, 48 h
[1] = tested on: A498 renal
[2] = tested on: A549 NSCLC
[3] = tested on: ACHN renal
[4] = tested on: CCRF-CEM leukemia
[5] = tested on: DMS 114 small cell lung
[6] = tested on: DMS 273 small cell lung
[7] = tested on: EKVX NSCLC
[8] = tested on: HCT-116 colon
[9] = tested on: HL-60(TB) leukemia
[10] = tested on: HOP-62 NSCLC
[11] = tested on: HOP-92 NSCLC
[12] = tested on: HT29 colon
[13] = tested on: IGROV1 ovarian
[14] = tested on: KM12 colon
[15] = tested on: KM20L2 colon
[16] = tested on: M14 melanoma
[17] = tested on: M19-MEL melanoma
[18] = tested on: MOLT-4 leukemia
[19] = tested on: NCI-H226 lung
[20] = tested on: NCI-H23 lung
[21] = tested on: NCI-H460 lung
[22] = tested on: NCI-H522 lung
[23] = tested on: OVCAR-5 ovarian
[24] = tested on: OVCAR-8 ovarian
[25] = tested on: RXF 393 renal
[26] = tested on: RXF-631 renal
[27] = tested on: SF-295 CNS
[28] = tested on: SK-MEL-28 melanoma
[29] = tested on: SK-OV-3 ovarian
[30] = tested on: SNB-78 CNS
[31] = tested on: SR leukemia
[32] = tested on: TK-10 renal
[33] = tested on: U251 CNS
[34] = tested on: UACC-257 melanoma
[35] = tested on: UACC-62 melanoma
[36] = tested on: 786-0 renal
[37] = tested on: CAKI-1 renal
[38] = tested on: COLO 205 colon
[39] = tested on: DLD-1 colon
[40] = tested on: HCC-2998 colon
[41] = tested on: HCT-15 colon
[42] = tested on: HOP-18 NSCLC
[43] = tested on: K-562 leukemia
[44] = tested on: LXFL 529 NSCLC
[45] = tested on: MALME-3M melanoma
[46] = tested on: OVCAR-3 ovarian
[47] = tested on: OVCAR-4 ovarian
[48] = tested on: RPMI-8226 leukemia
[49] = tested on: SF-268 CNS
[50] = tested on: SF-539 CNS
[51] = tested on: SK-MEL-2 melanoma
[52] = tested on: SK-MEL-5 melanoma
[53] = tested on: SN12C renal
[54] = tested on: SNB-19 CNS
[55] = tested on: SNB-75 CNS
[56] = tested on: SW-620 colon
[57] = tested on: UO-31 renal
[58] = tested on: LOX IMVI melanoma
[59] = tested on: XF 498 CNS

Measured: TGI

NCC(=O)NC(CCCC(NC(=O)CN)P(=O)(O)O)P(=O)(O)O (configuration not stated)
not listed: [36] | [37] | [38] | [39] | [40] | [41] | [42] | [43] | [44] | [45] | [46] | [47] | [48] | [49] | [50] | [51] | [52] | [53] | [54] | [55] | [56] | [57] | [58] | [59]
> 100 µM: all other assays above

C#CC[C@]12CC(=O)CC[C@H]1CC(=O)C2
not listed: [5] | [7] | [11] | [12] | [20] | [23] | [27] | [58] | [59]
> 100 µM: all other assays above

CCC(C)(O)c1cn(-c2cccc(S(=O)(=O)O)c2)nn1 (configuration not stated)
not listed: [17] | [26]
> 100 µM: all other assays above
